Results on nine molecules are retold here after patent US20030203888A1, “Chromophores” (priority 2001, published 2003).

The target of one data set is BSA (Bos taurus, UniProt P02769). Nature of the data set: 'Blank' bioconjugation: non-covalent binding of unreactive fluorophore to BSA (gel filtration, UV analysis). The following applies: after PD-10 gel filtration. An excerpt:
(§1) Experiments have been undertaken to determine the level of non-covalent binding of fluorophore to the protein surface (BSA and avidin). ‘Blank’ bioconjugations using mixtures of the unreactive DPCH and DPBC derivatives 2,3-dihydroxy-5-(4-methoxyphenyl)-15-(4-acetomidophenyl)chlorin (higher Rf regioisomer) and 2,3,12,13-tetrahydroxy-5-(4-acetomidophenyl)-15-(4-methoxyphenyl) bacteriochlorin (higher Rf […] stereoisomer) with both BSA and avidin have been carried out and the resultant protein solutions have been purified by gel filtration (PD-10) as described for the reactive probes described earlier. […] For BSA or avidin, 1 unreactive DPCH binds to each protein molecule, whereas DPBC is less than 1 due probably to its increased polarity and non-amphiphilic nature.
(In gel filtration, larger molecules generally elute earlier.)

Another data set has as its target avidin (Gallus gallus, UniProt P02701). Briefly: 'Blank' bioconjugation: non-covalent binding of unreactive fluorophore to avidin (gel filtration, UV analysis). The following applies: after PD-10 gel filtration.
Text: as §1

Data set [1] can be described thus: Solubility in water of the chloride salts.
The test system of data set [2] is Colo 320 cells. Briefly: FACS conjugate binding analysis. The following applies: FITC detection, 3 repeats. The class given is cell-based, human. Here is the method:
Wash flask of cells with phosphate buffered saline (PBS) pH 7.3. Treat with 5 mM EDTA in PBS for 10 min at 37C. Tap flask to dislodge cells, place in 50 mL polypropylene tube and pellet at 400 g 3 min. Resuspend in 10 mL PBS and count cells. Place 2×10^5 in FACS tube (Falcon 2054) and wash with 1 mL PBS by centrifugation (400 g 3 min) and resuspension by agitation
Block cells in 500 μL 2% Marvel milk powder in PBS, 1% BSA 30 min RT
Wash cells in 1 mL PBS/BSA/Azide centifuge and resuspend pellet (as above)
Add 10 μL appropriate antibody dilution. Incubate on ice 1 h
Add 50 μL Rabbit anti-mouse:FITC (Serotec, 1/100 dilution) and incubate on ice in the dark 1 h
Wash cells in 1 mL PBS/BSA/Azide centiflige (as above) and resuspend pellet in 400 μL PBS/BSA/Azide.
Run samples through FACS machine using CellQuest acquisition software to collect data.
FACS analyses were run in accordance with Methodology Description 5.

In data set [3] the test system is Colo 320 cells. Briefly: Standard photocytotoxicity test (MTT). The following applies: 3.6J/cm2 filtered red light, MTT % cell survival. Format: cell-based, human. Here is the method: Cells are grown to confluence or appropriate density then washed 2 times with PBS (phosphate buffered saline) to eliminate all trace of FBS (fretal bovine serum). Cell density is adjusted to 1.5×10^6 cells/ml in medium without FBS and these are then incubated for 1 hour in the dark (37 degrees C., 5% CO2) with a range of photosensitiser/conjugate concentrations. Post incubation, cells are washed further with medium (without FBS)to eliminate unbound photosensitiser, then resuspended and seeded in 96 wells plates (1×10^5 cells/well) in quadruplate. Plates are then either irradiated (3.6J/cm2 of filtered red light […]) or left in the dark as “dark toxicity controls” for the same period of time (14 minutes).Five microliters (5%/well) of FBS is added after the irradiation/dark period and the plates are returned to the incubator overnight. Twenty to 24 hours after treatment, 10 μl of MTT solution (Sigma Thiazolyl blue, 4.8×10^−4M in PBS)is added per well and the plates are returned to the incubator until color develops (between 1 and 4 hours). A solution of acid-alcohol (100 μl/well of 0.04N HCL in isopropanol) is the added and mixed thoroughly to dissolve the dark blue crystals. Plates are then read at 570 nm in a microplate reader and the % cell survival calculated against controls. […]

avidin, sequence (P02701 25-152, species assumed): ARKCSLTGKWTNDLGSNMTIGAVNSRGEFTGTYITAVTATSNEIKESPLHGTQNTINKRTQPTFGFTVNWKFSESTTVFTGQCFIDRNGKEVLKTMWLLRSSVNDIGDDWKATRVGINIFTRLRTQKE
BSA, sequence (P02769 25-607): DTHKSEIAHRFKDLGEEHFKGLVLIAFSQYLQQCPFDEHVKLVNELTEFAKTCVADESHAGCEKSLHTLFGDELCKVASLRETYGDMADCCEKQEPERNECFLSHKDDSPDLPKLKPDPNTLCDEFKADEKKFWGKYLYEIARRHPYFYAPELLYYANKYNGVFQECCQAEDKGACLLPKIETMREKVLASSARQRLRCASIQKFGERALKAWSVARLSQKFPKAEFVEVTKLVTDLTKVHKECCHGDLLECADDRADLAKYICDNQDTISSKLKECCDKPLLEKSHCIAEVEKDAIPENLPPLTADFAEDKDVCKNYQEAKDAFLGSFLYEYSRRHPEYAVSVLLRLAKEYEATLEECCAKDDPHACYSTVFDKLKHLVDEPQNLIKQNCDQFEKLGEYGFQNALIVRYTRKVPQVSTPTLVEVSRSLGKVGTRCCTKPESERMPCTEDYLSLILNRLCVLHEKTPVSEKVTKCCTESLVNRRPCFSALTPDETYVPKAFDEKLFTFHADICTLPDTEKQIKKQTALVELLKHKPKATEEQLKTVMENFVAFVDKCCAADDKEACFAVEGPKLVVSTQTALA

Regarding `COc1ccc(-c2c3nc(cc4ccc([nH]4)c(-c4ccc(NC(C)=O)cc4)c4nc(cc5ccc2[nH]5)C=C4)C(O)C3O)cc1` (stereo not shown) [Example 10, 17,18-Dihydroxy-5-(4-acetamidophenyl)-15-(4-methoxyphenyl)chlorin], the “unreactive fluorophore molecules non-covalently bound to each protein molecule” value on BSA and on avidin was 1 each time.
Turning to `COc1ccc(-c2c3nc(cc4ccc([nH]4)c(-c4ccc(NC(C)=O)cc4)c4nc(cc5ccc2[nH]5)C(O)C4O)C(O)C3O)cc1` (stereo not shown) [Example 12, 7,8,17,18-tetrahydroxy-5-(4-acetamidophenyl)-15-(4-methoxyphenyl)bacteriochlorin], the “unreactive fluorophore molecules non-covalently bound to each protein molecule” value on BSA and at avidin was “less than 1” throughout.
Turning to `Oc1cc(O)cc(-c2c3nc(c(-c4cc(O)cc(O)c4)c4ccc([nH]4)c(-c4cc(O)cc(O)c4)c4nc(c(-c5ccc(N=C=S)cc5)c5ccc2[nH]5)C=C4)C=C3)c1`, the melting point (as a rule, the temperature of the solid-liquid transition) was > 350 °C (dec.).
On the same count and under the same terms, as for `Nc1ccc(-c2c3nc(c(-c4cc(O)cc(O)c4)c4ccc([nH]4)c(-c4cc(O)cc(O)c4)c4nc(c(-c5cc(O)cc(O)c5)c5ccc2[nH]5)C=C4)C=C3)cc1` [OH6-NH2, 5-(4-Aminophenyl)-10,15,20-tris(3,5-dihydroxyphenyl)porphyrin], the figure is > 350 °C (dec.).
For the molecule “5-(4-Isothiocyanatophenyl)-10,15,20-tris(4-N-methylpyridiniumyl) porphyrin Trichloride [Example 6]”, the solubility in water result in data set [1] is given as “water soluble”.
As to `S=C=Nc1ccc(-c2c3nc(c(-c4cccnc4)c4ccc([nH]4)c(-c4cccnc4)c4nc(c(-c5cccnc5)c5ccc2[nH]5)C=C4)C=C3)cc1`, the melting point was > 350 °C (dec.).
For `S=C=Nc1ccc(-c2c3nc(c(-c4ccncc4)c4ccc([nH]4)c(-c4ccncc4)c4nc(c(-c5ccncc5)c5ccc2[nH]5)C=C4)C=C3)cc1`, the melting point was > 350 °C (dec.).

B1: OH6/17.1A: OH6 conjugated with 17.1A monoclonal antibody, MRs of 2.5, 5, 10 and 20 (conjugate, chains of the INN, looked up)
VH: QVQLQQSGAELVRPGTSVKVSCKASGYAFTNYLIEWVKQRPGQGLEWIGVINPGSGGTNYNEKFKGKATLTADKSSSTAYMQLSSLTSDDSAVYFCARDGPWFAYWGQGTLVTVSA
VL: NIVMTQSPKSMSMSVGERVTLTCKASENVVTYVSWYQQKPEQSPKLLIYGASNRYTGVPDRFTGSGSATDFTLTISSVQAEDLADYHCGQGYSYPYTFGGGTKLEIK
modifications: conjugated to OH6
With B1, in the data set on Colo 320 cells [2], the “binding to Colo 320 cells” value was “has bound to the cells”. In addition, the photocytotoxicity following irradiation result with Colo 320 cells [3] is given as “significant increase in cytotoxicity on irradiation”.

B2: PYR/17.1A: PYR conjugated with 17.1A monoclonal antibody (conjugate, chains of the INN, looked up)
VH: B1 VH
VL: B1 VL
modifications: conjugated to PYR
notes: PYR conjugated with 17.1A monoclonal antibody
With B2, the “binding to Colo 320 cells” value with Colo 320 cells [2] is “has bound to the cells”. Besides, in the data set with Colo 320 cells [3], the photocytotoxicity following irradiation entry was “significant increase in cytotoxicity on irradiation”.
